The values below come from patent US11780845B2 (Relay Therapeutics, Inc., priority 2019, dated 2023).

Usually IC50 stands for the concentration at which inhibition is half-maximal.

One assay addresses FGFR2 (Homo sapiens (Human), UniProt P21802). The assay can be described thus: Biochemical FGFR2 Caliper assay.
For a further assay, the system named is SNU-16. The assay can be described thus: Cell SNU-16 assay. Format: cell-based. The following applies: Homo sapiens, SNU-16, SNU-16 cells.

Chain of FGFR2 (P21802 22-821): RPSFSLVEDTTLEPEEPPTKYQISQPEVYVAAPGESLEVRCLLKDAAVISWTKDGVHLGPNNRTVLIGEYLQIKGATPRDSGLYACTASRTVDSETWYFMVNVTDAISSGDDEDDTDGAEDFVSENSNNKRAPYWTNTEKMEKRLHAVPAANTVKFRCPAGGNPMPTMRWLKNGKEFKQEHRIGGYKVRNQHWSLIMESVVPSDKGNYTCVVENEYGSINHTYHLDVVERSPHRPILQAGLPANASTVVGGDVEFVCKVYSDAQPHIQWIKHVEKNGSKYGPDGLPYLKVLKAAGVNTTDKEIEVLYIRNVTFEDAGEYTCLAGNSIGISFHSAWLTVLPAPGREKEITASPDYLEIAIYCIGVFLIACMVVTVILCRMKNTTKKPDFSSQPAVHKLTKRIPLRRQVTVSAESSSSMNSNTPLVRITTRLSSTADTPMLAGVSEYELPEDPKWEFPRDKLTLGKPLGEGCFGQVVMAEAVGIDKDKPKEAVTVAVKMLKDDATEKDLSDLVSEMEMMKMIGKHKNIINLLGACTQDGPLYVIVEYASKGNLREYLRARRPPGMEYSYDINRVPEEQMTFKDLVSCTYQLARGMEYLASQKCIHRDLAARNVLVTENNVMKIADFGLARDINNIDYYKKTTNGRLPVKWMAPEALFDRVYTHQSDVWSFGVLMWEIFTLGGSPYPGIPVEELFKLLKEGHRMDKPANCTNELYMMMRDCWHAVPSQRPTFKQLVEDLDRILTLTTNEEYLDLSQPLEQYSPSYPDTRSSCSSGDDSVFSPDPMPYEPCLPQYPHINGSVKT

For `C=Cc1ccc(-c2c(-c3ccccc3)c3c(N)ncnc3n2C)cn1` [Example 1194], the IC50 against FGFR2 and with SNU-16 was 1000 to 100000 nM throughout.

For `C#Cc1ccc(-c2c(-c3ccc(Oc4nccc(C)n4)cc3F)c3c(N)ncnc3n2C)c(C)n1` [Example 1197], the IC50 was < 100 nM on FGFR2 and ≤ 100 nM in the assay on SNU-16.

For the molecule `C#Cc1cc(F)c(-c2c(-c3ccc(Oc4nccc(C)n4)c(F)c3)c3c(N)ncnc3n2C)cn1` [Example 1198], the half-maximal inhibitory concentration (IC50) on FGFR2 is < 100 nM; in the assay with SNU-16 it was ≤ 100 nM.

Take `C#Cc1ccc(-c2c(-c3ccc(Oc4nccc(C)n4)c(F)c3)c3c(N)ncnc3n2C)c(F)n1` [Example 1200]: the 50% inhibitory concentration (IC50) on FGFR2 and in the assay on SNU-16 was 1000 to 100000 nM throughout.

For `C#Cc1nc2cc(-c3c(-c4ccc(Oc5nccc(C)n5)c(F)c4)c4c(N)ncnc4n3C)ccc2[nH]1` [Example 1202], the IC50 against FGFR2 lay within 1000 to 100000 nM; in the assay on SNU-16 it was 250 to 1000 nM.

For the molecule `C#Cc1cc(C)c(-c2c(-c3ccc(Oc4cccc(C)n4)c(F)c3)c3c(N)ncnc3n2C)cn1` [Example 1203], the half-inhibitory concentration (IC50) is < 100 nM against FGFR2 and ≤ 100 nM in the assay with SNU-16.

As for `Cc1ccnc(Oc2ccc(-c3c(-c4ccc(C)nc4C)n(C)c4ncnc(N)c34)cc2F)n1` [Example 1206], the IC50 on FGFR2 and with SNU-16 was 250 to 1000 nM in each case.

Turning to `C#Cc1cc(C)c(-c2c(-c3ccc(Oc4nccc(C)n4)c(F)c3)c3c(N)ncnc3n2C(C)C)cn1` [Example 1213], the IC50 is < 100 nM at FGFR2 and ≤ 100 nM with SNU-16.

In the case of `C#Cc1ccc(-c2c(-c3ccc(Oc4nccc(C)n4)c(F)c3)c3c(N)ncnc3n2C(C)C)c(C)n1` [Example 1214], the IC50 against FGFR2 is < 100 nM; with SNU-16, ≤ 100 nM.

For `C#Cc1cc(C)c(-c2c(-c3ccc(Oc4nccc(C)n4)c(F)c3)c3c(N)ncnc3n2C)c(C)n1` [Example 1215], the concentration for half-maximal inhibition (IC50) was < 100 nM against FGFR2 and ≤ 100 nM in the assay on SNU-16.

In the case of `C#Cc1cc(CC)c(-c2c(-c3ccc(Oc4nccc(C)n4)c(F)c3)c3c(N)ncnc3n2C)cn1` [Example 1217], the IC50 against FGFR2 was < 100 nM; in the assay with SNU-16 it was ≤ 100 nM.

Turning to `C#Cc1cc(CO)c(-c2c(-c3ccc(Oc4nccc(C)n4)c(F)c3)c3c(N)ncnc3n2C)cn1` [Example 1228], the values for the IC50 at FGFR2 and in the assay with SNU-16 were < 100 nM and ≤ 100 nM, respectively.

Turning to `COCC#Cc1ncc(-c2c(-c3ccc(Oc4nccc(C)n4)cc3)c3c(N)ncnc3n2C)c(C)n1` [Example 1232], the 50% inhibitory concentration (IC50) on FGFR2 is < 100 nM; in the assay with SNU-16 it was ≤ 100 nM.

In the case of `C#Cc1ncc(-c2c(-c3ccc(Oc4nccc(C)n4)c(F)c3)c3c(N)ncnc3n2C)c2ccccc12` [Example 1233], the concentration for half-maximal inhibition (IC50) at FGFR2 was < 100 nM; in the assay on SNU-16, ≤ 100 nM.

Consider `C#Cc1cc(C)c(-c2c(-c3ccc(Oc4ncccn4)c(F)c3)c3c(N)ncnc3n2C)cn1` [Example 1234], for which the IC50 against FGFR2 was < 100 nM; in the assay on SNU-16, ≤ 100 nM.

With `C#Cc1cc(-c2c(-c3ccc(Oc4nccc(C)n4)cc3)c3c(N)ncnc3n2C)n(C)n1` [Example 1236], the IC50 on FGFR2 and in the assay on SNU-16 was 1000 to 100000 nM throughout.

Turning to `C#Cc1cc(-c2c(-c3ccc(Oc4nccc(C)n4)c(F)c3)c3c(N)ncnc3n2C)ccn1` [Example 1237], the IC50 is 250 to 1000 nM at FGFR2 and ≤ 100 nM in the assay on SNU-16.

As for `C=C1CCc2ccc(-c3c(-c4ccc(Oc5nccc(C)n5)cc4)c4c(N)ncnc4n3C)cc2C1=O` [Example 1242], the IC50 against FGFR2 lay in the range of 100 to 250 nM; in the assay with SNU-16 it was 1000 to 100000 nM.

Turning to `C#Cc1ccc(-c2c(-c3ccc(Oc4nccc(C)n4)c(F)c3)c3c(N)ncnc3n2C)c(CC)n1` [Example 1243], the half-maximal inhibitory concentration (IC50) was < 100 nM at FGFR2 and ≤ 100 nM in the assay on SNU-16.

Consider `C#Cc1cc(C)c(-c2c(-c3ccc(Oc4nccc(C)n4)c(F)c3)c3c(N)ncnc3n2CCO)cn1` [Example 1245], for which the figures for the IC50 against FGFR2 and in the assay on SNU-16 were < 100 nM and ≤ 100 nM, respectively.

Turning to `C#Cc1cc(C)c(-c2c(-c3ccc(Oc4ccn(C)n4)c(F)c3)c3c(N)ncnc3n2C)cn1` [Example 1246], the figures for the 50% inhibitory concentration (IC50) on FGFR2 and in the assay on SNU-16 were < 100 nM and ≤ 100 nM, respectively.

With `C#Cc1cc(C)c(-c2c(C3=CC[C@H](C(=O)N4CCC[C@H]4C)CC3)c3c(N)ncnc3n2C)cn1` [Example 1249], the figures for the IC50 against FGFR2 and in the assay on SNU-16 were 250 to 1000 nM and 100 to 250 nM, respectively.

In the case of `C#Cc1cc(Cl)c(-c2c(-c3ccc(Oc4nccc(C)n4)c(F)c3)c3c(N)ncnc3n2C)cn1` [Example 1250], the IC50 against FGFR2 is < 100 nM; with SNU-16, ≤ 100 nM.

Regarding `C#Cc1cc(C)c(-c2c(C3=CC[C@H](C(=O)N4CCC[C@H]4C#N)CC3)c3c(N)ncnc3n2C)cn1` [Example 1251], the half-maximal inhibitory concentration (IC50) against FGFR2 was < 100 nM; in the assay with SNU-16 it was ≤ 100 nM.

`C#Cc1cc(C)c(-c2c(C3=CC[C@@H](C(=O)N4CCC[C@H]4C#N)CC3)c3c(N)ncnc3n2C)cn1` [Example 1252]: the concentration for half-maximal inhibition (IC50) against FGFR2 was < 100 nM; in the assay on SNU-16 it was ≤ 100 nM.

Turning to `C#Cc1cc(C(F)F)c(-c2c(-c3ccc(Oc4nccc(C)n4)c(F)c3)c3c(N)ncnc3n2C)cn1` [Example 1253], the half-maximal inhibitory concentration (IC50) against FGFR2 is < 100 nM; in the assay with SNU-16, ≤ 100 nM.

`C#Cc1ncc(-c2c(-c3ccc(Oc4nccc(C)n4)c(F)c3)c3c(C)ncnc3n2C)c(C)c1F` [Example 1255]: the IC50 is < 100 nM at FGFR2 and ≤ 100 nM with SNU-16.

Take `C#Cc1cc(C)c(-c2c(C3=CC[C@H](C(=O)N4CCC[C@@H]4C)CC3)c3c(N)ncnc3n2C)cn1` [Example 1257]: the 50% inhibitory concentration (IC50) against FGFR2 and with SNU-16 was 250 to 1000 nM in each case.

For `C#Cc1ncc(-c2c(-c3ccc(C(=O)NCC(F)(F)F)c(OC)c3)c3c(N)ncnc3n2C)c(C)c1F` [Example 1260], the IC50 was < 100 nM on FGFR2 and ≤ 100 nM in the assay with SNU-16.

With `C#Cc1ncc(-c2c(-c3ccc(C(=O)NCC(C)C)c(F)c3)c3c(N)ncnc3n2C)c(C)c1F` [Example 1261], the IC50 is < 100 nM at FGFR2 and ≤ 100 nM in the assay on SNU-16.

For the molecule `C#Cc1cc(C)c(-c2c(-c3ccc(Oc4nccc(C)n4)c(C#N)c3)c3c(N)ncnc3n2C)cn1` [Example 1262], the half-maximal inhibitory concentration (IC50) was < 100 nM against FGFR2 and ≤ 100 nM in the assay with SNU-16.

Regarding `C#Cc1cc(C)c(-c2c(-c3ccc(Oc4nccc(C)n4)c(Cl)c3)c3c(N)ncnc3n2C)cn1` [Example 1263], the IC50 was < 100 nM at FGFR2 and ≤ 100 nM with SNU-16.

Consider `C#Cc1ncc(-c2c(-c3ccc(Oc4nccc(C)n4)c(Cl)c3)c3c(N)ncnc3n2C)c(C)c1F` [Example 1264], for which the IC50 against FGFR2 is < 100 nM; with SNU-16 it was ≤ 100 nM.

For the molecule `COC(=O)/C=C/CNc1ccc(-c2c(-c3ccc(Oc4nccc(C)n4)c(F)c3)c3c(N)ncnc3n2C)cc1` [Example 1265], the concentration for half-maximal inhibition (IC50) on FGFR2 was < 100 nM; in the assay on SNU-16, 100 to 250 nM.

Consider `Cc1ccnc(Oc2ccc(-c3c(-c4ccc(NCC#N)cc4)n(C)c4ncnc(N)c34)cc2F)n1` [Example 1266], for which the half-inhibitory concentration (IC50) fell in the range of 1000 to 100000 nM against FGFR2 and 250 to 1000 nM in the assay with SNU-16.

`C=C(C)C(=O)Nc1ccc(-c2c(-c3ccc4c(c3)NCCN4C)c3c(N)ncnc3n2C)cc1` [Example 1267]: the half-maximal inhibitory concentration (IC50) on FGFR2 and in the assay with SNU-16 was 1000 to 100000 nM each time.

For `C=C(C)C(=O)Nc1ccc(-c2c(C3=COCCC3)c3c(N)ncnc3n2C)cc1` [Example 1268], the half-maximal inhibitory concentration (IC50) against FGFR2 and with SNU-16 was 1000 to 100000 nM throughout.

As to `C=C(C)C(=O)Nc1ccc(-c2c(C3=CCCCO3)c3c(N)ncnc3n2C)cc1` [Example 1269], the IC50 on FGFR2 and with SNU-16 was 1000 to 100000 nM in each case.

On to `C=C(C)C(=O)Nc1ccc(-c2c(-c3cc4cccnc4s3)c3c(N)ncnc3n2C)cc1` [Example 1270], for which the concentration for half-maximal inhibition (IC50) against FGFR2 and in the assay on SNU-16 was 250 to 1000 nM throughout.

For the molecule `C=C(C)C(=O)Nc1ccc(-c2c(-c3ccc(-c4cccnc4)s3)c3c(N)ncnc3n2C)cc1` [Example 1271], the IC50 at FGFR2 and in the assay with SNU-16 was 1000 to 100000 nM in each case.

As to `C=C(C)C(=O)Nc1ccc(-c2c(-c3ccc4ccncc4c3)c3c(N)ncnc3n2C)cc1` [Example 1272], the concentration for half-maximal inhibition (IC50) against FGFR2 and in the assay with SNU-16 was 1000 to 100000 nM each time.

`C=C(C)C(=O)Nc1ccc(-c2c(-c3coc4ccccc34)c3c(N)ncnc3n2C)cc1` [Example 1273]: the 50% inhibitory concentration (IC50) against FGFR2 and in the assay on SNU-16 was 1000 to 100000 nM each time.

As to `C=C(C)C(=O)Nc1ccc(-c2c(-c3ccc4nc(C)oc4c3)c3c(N)ncnc3n2C)cc1` [Example 1274], the IC50 against FGFR2 and with SNU-16 was 1000 to 100000 nM each time.

Consider `C=C(C)C(=O)Nc1ccc(-c2c(-c3cnn(C4CCCC4)c3)c3c(N)ncnc3n2C)cc1` [Example 1275], for which the IC50 at FGFR2 and with SNU-16 was 250 to 1000 nM in each case.

Consider `C=C(C)C(=O)Nc1ccc(-c2c(-c3cnn(-c4ccccc4)c3C)c3c(N)ncnc3n2C)cc1` [Example 1276], for which the IC50 on FGFR2 and with SNU-16 was 1000 to 100000 nM each time.

As to `C=C(C)C(=O)Nc1ccc(-c2c(-c3ccc4cccnc4c3)c3c(N)ncnc3n2C)cc1` [Example 1277], the IC50 at FGFR2 fell in the range of 250 to 1000 nM; in the assay with SNU-16 it was 1000 to 100000 nM.

On to `C=C(C)C(=O)Nc1ccc(-c2c(-c3ccc(-c4ccccn4)s3)c3c(N)ncnc3n2C)cc1` [Example 1278], for which the IC50 on FGFR2 and in the assay on SNU-16 was 250 to 1000 nM throughout.

Take `C=C(C)C(=O)Nc1ccc(-c2c(-c3ccc4nc(C)sc4c3)c3c(N)ncnc3n2C)cc1` [Example 1279]: the concentration for half-maximal inhibition (IC50) against FGFR2 and in the assay on SNU-16 was 250 to 1000 nM each time.

On to `C=C(C)C(=O)Nc1ccc(-c2c(-c3ccc4oc(C)nc4c3)c3c(N)ncnc3n2C)cc1` [Example 1280], for which the IC50 on FGFR2 and in the assay with SNU-16 was 250 to 1000 nM each time.

Regarding `C=C(C)C(=O)Nc1ccc(-c2c(-c3cnn(-c4ccccc4)c3)c3c(N)ncnc3n2C)cc1` [Example 1281], the IC50 against FGFR2 is 1000 to 100000 nM; in the assay on SNU-16, 250 to 1000 nM.

Take `C=C(C)C(=O)Nc1ccc(-c2c(-c3ccc4ncccc4c3)c3c(N)ncnc3n2C)cc1` [Example 1282]: the 50% inhibitory concentration (IC50) at FGFR2 and in the assay with SNU-16 was 1000 to 100000 nM each time.

For `C=C(C)C(=O)Nc1ccc(-c2c(-c3ccc4c(c3)NC(=O)C4(C)C)c3c(N)ncnc3n2C)cc1` [Example 1283], the half-maximal inhibitory concentration (IC50) against FGFR2 and with SNU-16 was 1000 to 100000 nM each time.

For `C=C(C)C(=O)Nc1ccc(-c2c(-c3cnc4ccccc4c3)c3c(N)ncnc3n2C)cc1` [Example 1284], the IC50 against FGFR2 and in the assay on SNU-16 was 1000 to 100000 nM throughout.
